Assay results as given in patent publication US20090286785A1, “Pyrimidine Derivatives” (Bayer Pharmaceuticals Corporation, priority 2005, published 2009).
Like-named read-outs stand apart in the source and are kept apart here.

System: HCT116 cells
Test: HCT116 cytotoxic activity assay (Alamar Blue, 72 h)
Conditions: Homo sapiens, HCT-116, 72 h
[1] = read-out: IC50 in the HCT116 cytotoxic activity assay

Procedure: Human tumor cells, e.g., HCT116 cells, are seeded in a 96-well plate at 3.0×10^3 cells/well and grown in 100 μl of RPMI complete media (Invitrogen Corporation, Grand Island, N.Y.) containing 10% fetal bovine serum (Hyclone, Logan, Utah) and 10 mM HEPES and at 37° C. for 16 h in an incubator with 5% CO2. To each well, 50 μl of additional growth media containing 20 μM to 60 nM concentrations of compound with 0.2% DMSO is added. Cells are grown for another 72 h at 37° C. 20 μl of Alamar Blue (Trek Diagnostic Systems, Inc., Cleveland, Ohio) reagent is added to each well and incubated for 4 h at 37° C. Plates are read in a SpectraMax Gemini (Molecular Devices, CA) with 544 nm excitation and 590 nm emission wavelength. IC50 values are determined by linear regression analysis of log drug concentration versus percent inhibition.

## Nc1nc(Nc2ccc(Oc3ccnc(C(F)(F)F)c3)cc2)cc(-c2ccc3[nH]ccc3c2)n1 [Example 12, 6-(1H-indol-5-yl)-N^4-(4-{[2-(trifluoromethyl)pyridin-4-yl]oxy}phenyl)pyrimidine-2,4-diamine]
[1]
  IC50: ≤ 0.5 µM

## Nc1nc(Nc2ccc(Oc3ccnc(C(F)(F)F)c3)cc2)cc(-c2ccc3[nH]cc(CN4CCOCC4)c3c2)n1 [Example 15, 6-[3-(morpholin-4-ylmethyl)-1H-indol-5-yl]-N^4-(4-{[2-(trifluoromethyl)pyridin-4-yl]oxy}phenyl)pyrimidine-2,4-diamine]
[1]
  IC50: > 0.5 µM
read-out: IC50 in the HCT116 cytotoxic activity assay (upper bound of bin)
  IC50: ≤ 5 µM
